Values after ≈ are worked out from the molar mass of the structure shown.
Key:
[1] = test system: L1210; experiment: Cytotoxicity against mouse L1210 cells; assay type: functional, cell-based
[2] = test system: KB; experiment: Cytotoxicity against human KB cells; assay type: functional, cell-based

Row | Compound | IC50 [1] | IC50 [2]
1 | C/C=C(\C)C(=O)NCC(OC(=O)CCCCCCC/C=C/CCCCCCCC)C1=CC(=O)c2nccc3c2c1nc1ccccc13 (configuration not stated) [CYSTODYTIN I] | 0.08 µg/mL (≈ 0.125 µM) | 0.092 µg/mL (≈ 0.144 µM)
2 | CC(C)=CC(=O)NCC(O)C1=CC(=O)c2nccc3c2c1nc1ccccc13 (configuration not stated) [CYSTODYTIN D] | 1.1 µg/mL (≈ 2.95 µM) | 1.4 µg/mL (≈ 3.75 µM)
3 | COC(CNC(=O)C=C(C)C)C1=CC(=O)c2nccc3c2c1nc1ccccc13 (configuration not stated) [CYSTODYTIN F] | 0.068 µg/mL (≈ 0.176 µM) | 0.078 µg/mL (≈ 0.201 µM)
4 | CCCCCCCC/C=C/CCCCCCCC(=O)OC(CNC(=O)C=C(C)C)C1=CC(=O)c2nccc3c2c1nc1ccccc13 (configuration not stated) [CYSTODYTIN H] | 0.08 µg/mL (≈ 0.125 µM) | 0.092 µg/mL (≈ 0.144 µM)
5 | C/C=C(\C)C(=O)NCC(OC)C1=CC(=O)c2nccc3c2c1nc1ccccc13 (configuration not stated) [CYSTODYTIN G] | 0.068 µg/mL (≈ 0.176 µM) | 0.078 µg/mL (≈ 0.201 µM)
6 | C/C=C(\C)C(=O)NCC(O)C1=CC(=O)c2nccc3c2c1nc1ccccc13 (configuration not stated) [CYSTODYTIN E] | 1.1 µg/mL (≈ 2.95 µM) | 1.4 µg/mL (≈ 3.75 µM)
